Measured values: patent EP0391644B1, “Aryl-substituted rhodanine derivatives” (ELI LILLY AND COMPANY, priority 1989, dated 1990)
Where “and” joins values, the source holds several entries; their conditions need not be identical. Equal values may be shown once.

What was measured:
[1] = tested on: inflammation; assay: Carrageenin Assay; assay type: in vivo; settings: Rattus norvegicus, po; 50 mg/kg orally by gavage; carrageenin-injected hind paws of rats; read-out: Percent Inhibition
Protocol: The compounds were evaluated for antiinflammatory activity in the test method described by C.A. Winter, Proc. Soc. Exp. Biol. Med., 111, 544 (1962). In this test, inflammation is created by injecting carrageenin into the hind paws of rats. Test compounds are administered prior to injection to determine percent inhibition of the subsequent inflammation in comparison with control animals.

[2] = tested on: adjuvant-induced arthritis; assay: Developing Adjuvant-Induced Arthritis Test in Rats; assay type: in vivo, male Lewis-Wistar rats; settings: Rattus norvegicus, po, 720 h; 50 mg/kg P.O. x 29; AUC of uninjected paw volumes, Days 16 through 30; read-out: % Inhibition of Uninjected Paw Volume Inflammation
[3] = tested on: Collagen-Induced Arthritis; assay: Collagen-Induced Arthritis Assay; assay type: in vivo, inbred Lewis male rats; settings: 5 days per week, hindpaw volume
Protocol: Type II collagen was isolated from bovine articular cartilage by the method of Strawich and Nimni [Biochemistry, 10, 3905 (1971)]. The collagen was dissolved in 0.1 M acetic acid and stored at -20°C. Type II collagen solution was diluted to 2 mg/ml concentration and emulsified thoroughly with an equal volume of incomplete Freund's adjuvant (ICFA). The emulsion containing approximately 0.5 mg of collagen was injected intradermally on day 0 to groups of 6 inbred Lewis male rats (Charles River Breeders; 170-200 g) at various sites in the dorsal area. The hindpaw volumes of each rat were measured and recorded three times a week throughout the test period to assess the inflammatory reaction. The test group animals received compounds under test as suspensions in carboxymethylcellulose vehicle, by oral gavage, 5 days per week (Monday-Friday), beginning on day 1. Control animals received vehicle without a test compound. At the end of the test (day 28 or 30), the blood of these animals was drawn by cardiac puncture and the serum anti-type II collagen antibody levels were estimated by passive hemaglutination technique, using glutaraldehyde treated sheep red cells, to which type II collagen is conjugated [Avrameas et al., Immunochemistry, 6, 67 (1969); Andriopoulos et al., Arth. Rheum., 19, 613 (1976)]. The cellular response or delayed-type hypersensitivity response to type II collagen was measured by the radiometric ear index assay [Kostiala, Immunology, 33, 561 (1977)]. In certain experiments, the bone damage occurring because of immunization with type II collagen and the effects of drugs were determined from the radiographs of the hind-paws of two or three representative animals from each group. Injections of ICFA without collagen II were employed in some rats as a negative control; these rats received only carboxymethycellulose vehicle during the test.
The % inhibition was calculated according to the following formula: % inhibition = [1-(Vt - Vv)/(Vc - Vv)] X 100 [formula] where Vt is the hindpaw volume of a compound-treated animal (test group), Vc is the hindpaw volume of a non-compound-treated animal (carboxymethylcellulose vehicle only-the control group), and Vv is the hindpaw volume of a vehicle (carboxymethylcellulose) treated animal which received ICFA with no collagen II (negative control group).

[4] = tested on: Dystrophic mice (dy/dy); assay: Muscular Dystrophy Animal Model; assay type: in vivo
Protocol: Dystrophic mice (dy/dy) were obtained from Jackson Laboratories after weaning (approximately 21 days) and treatment with the compounds shown in Table V was begun at the first sign of dystrophy. The compounds that were tested were administered in the diet and lifespan was measured during the course of treatment. The food and water sources were located in different parts of the cage requiring the animals to walk from the food source to the water source to survive.

| Compound | inhibition in vivo at 50 mg/kg [1] [%] | inhibition in vivo at 50 mg/kg [2] [%] | % inhibition ([3]; 50 mg/kg by oral gavage) [%] | % inhibition ([3]; 30 mg/kg by oral gavage) | Average Life Span ([4]; 0.03 percent by weight of compound in diet) [days] | Average Life Span ([4]; 0.08 percent by weight of compound in diet) | Average Life Span ([4]; 0.1 percent by weight of compound in diet) [days] | Average Life Span ([4]; 0.3 percent by weight of compound in diet) [days] |
| --- | --- | --- | --- | --- | --- | --- | --- | --- |
| COC(=O)N1CSC(=Cc2cc(C(C)(C)C)c(O)c(C(C)(C)C)c2)C1=O [Example 4, 5-{[3,5-bis(1,1-dimethylethyl)-4-hydroxyphenyl]methylene}-4-oxo-3-thiazolidinecarboxylic acid, methyl ester] | 65 | 23 | 5 | – | – | – | – | – |
| CC(C)(C)c1cc(CC2SCNC2=O)cc(C(C)(C)C)c1O (centres unmarked) [Example 3, 5-{[3,5-bis(1,1-dimethylethyl)-4-hydroxyphenyl]methyl}-4-thiazolidinone] | 12 | 10 | 79 | – | – | – | – | – |
| CC(C)(C)c1cc(C=C2SCNC2=O)cc(C(C)(C)C)c1O [Example 2, 5-{[3,5-bis(1,1-dimethylethyl)-4-hydroxyphenyl]methylene}-4-thiazolidinone] | 46 | 81 | 100 | 91% and 50% | 57 | 116 days and 73 days | 108 | 74 |
